Experimental data as given in ChEMBL document CHEMBL4725292 (J Med Chem, 2020).
Calls of active or inactive are those of the source. The calls are words filed in the database; no cut-off is given here.

What was measured:
[1] = target: T1, ATPase family AAA domain-containing protein 2 (Homo sapiens, UniProt Q6PL18); assay: Binding affinity to human partial length ATAD2A (Q981 to R1108 residues) expressed in bacterial expression system by BROMOscan assay
T1 sequence (Q6PL18 whole entry): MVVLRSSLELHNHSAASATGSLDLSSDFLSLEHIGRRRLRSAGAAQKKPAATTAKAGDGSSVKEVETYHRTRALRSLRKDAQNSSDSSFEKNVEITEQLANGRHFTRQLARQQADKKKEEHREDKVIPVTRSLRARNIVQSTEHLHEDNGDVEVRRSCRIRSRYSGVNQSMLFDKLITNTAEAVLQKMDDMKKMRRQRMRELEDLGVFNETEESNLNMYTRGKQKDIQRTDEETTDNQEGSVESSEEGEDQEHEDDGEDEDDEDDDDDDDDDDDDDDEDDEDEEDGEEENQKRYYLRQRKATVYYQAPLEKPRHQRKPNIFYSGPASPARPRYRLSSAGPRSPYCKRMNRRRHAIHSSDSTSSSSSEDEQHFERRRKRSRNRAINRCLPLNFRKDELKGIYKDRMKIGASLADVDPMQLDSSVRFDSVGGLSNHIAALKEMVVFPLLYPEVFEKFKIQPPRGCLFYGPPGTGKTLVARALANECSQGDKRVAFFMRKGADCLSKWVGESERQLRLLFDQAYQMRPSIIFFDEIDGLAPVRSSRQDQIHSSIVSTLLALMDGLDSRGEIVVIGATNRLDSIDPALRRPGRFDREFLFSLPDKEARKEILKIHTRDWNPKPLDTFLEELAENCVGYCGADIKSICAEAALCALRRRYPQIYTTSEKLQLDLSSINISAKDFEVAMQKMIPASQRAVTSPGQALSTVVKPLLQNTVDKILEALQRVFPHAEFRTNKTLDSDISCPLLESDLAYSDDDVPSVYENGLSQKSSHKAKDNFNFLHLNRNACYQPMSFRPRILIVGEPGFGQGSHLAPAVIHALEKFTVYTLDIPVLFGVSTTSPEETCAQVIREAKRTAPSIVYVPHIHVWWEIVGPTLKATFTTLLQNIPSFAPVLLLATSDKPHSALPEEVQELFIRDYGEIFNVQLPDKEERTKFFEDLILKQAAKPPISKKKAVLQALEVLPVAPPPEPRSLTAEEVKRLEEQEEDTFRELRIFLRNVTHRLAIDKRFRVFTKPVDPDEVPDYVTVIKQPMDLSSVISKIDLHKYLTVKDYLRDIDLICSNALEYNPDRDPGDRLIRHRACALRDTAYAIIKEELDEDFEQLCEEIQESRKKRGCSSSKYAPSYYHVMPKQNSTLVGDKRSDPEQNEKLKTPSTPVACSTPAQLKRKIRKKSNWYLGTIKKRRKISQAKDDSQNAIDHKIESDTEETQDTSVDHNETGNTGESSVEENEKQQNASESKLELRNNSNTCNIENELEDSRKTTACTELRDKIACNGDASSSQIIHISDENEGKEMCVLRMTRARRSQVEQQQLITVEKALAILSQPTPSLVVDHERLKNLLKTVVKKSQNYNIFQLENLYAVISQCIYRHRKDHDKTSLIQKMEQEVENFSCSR

[2] = tested on: B cell; assay: Downregulation of IL-2 secretion in human B cells cocultured with human PBMC at 0.37 to 10 uM preincubated for 1 hr followed by anti-IgM and TCR stimulation and measured after 84 hrs by ELISA; type: functional, cell-based; settings: dose microM 0.37-10, time 1.0 hrs
[3] = target: T2, Bromodomain-containing protein 3 (Homo sapiens, UniProt Q15059); assay: Binding affinity to full length BRD3 BD2 in human HuT78 cell lysates incubated for 45 mins by liquid chromatography-mass spectrometry based chemoproteomic binding assay; type: subcellular
T2 sequence (Q15059 whole entry): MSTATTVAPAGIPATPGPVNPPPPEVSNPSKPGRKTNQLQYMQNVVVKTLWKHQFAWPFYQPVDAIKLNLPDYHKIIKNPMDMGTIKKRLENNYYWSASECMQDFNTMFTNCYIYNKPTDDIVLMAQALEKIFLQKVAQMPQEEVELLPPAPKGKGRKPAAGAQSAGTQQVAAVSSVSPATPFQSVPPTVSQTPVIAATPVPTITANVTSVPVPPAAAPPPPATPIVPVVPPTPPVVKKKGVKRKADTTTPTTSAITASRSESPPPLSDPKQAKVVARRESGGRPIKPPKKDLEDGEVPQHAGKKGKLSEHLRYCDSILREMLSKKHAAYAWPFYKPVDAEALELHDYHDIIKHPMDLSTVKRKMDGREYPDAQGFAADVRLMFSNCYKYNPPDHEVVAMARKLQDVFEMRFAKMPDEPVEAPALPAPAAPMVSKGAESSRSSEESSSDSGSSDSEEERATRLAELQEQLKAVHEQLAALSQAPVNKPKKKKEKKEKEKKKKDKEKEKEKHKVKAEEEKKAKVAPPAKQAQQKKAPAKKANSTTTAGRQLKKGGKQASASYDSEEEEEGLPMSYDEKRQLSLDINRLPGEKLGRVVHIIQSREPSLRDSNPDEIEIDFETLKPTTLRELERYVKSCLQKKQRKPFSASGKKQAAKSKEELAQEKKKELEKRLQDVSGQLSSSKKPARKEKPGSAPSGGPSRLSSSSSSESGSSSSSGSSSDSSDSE

[4] = tested on: Blood; assay: Inhibition of LPS-induced IL6 production in human whole blood preincubated for 30 mins followed by LPS addition and measured after overnight incubation by mesoscale assay; type: functional, tissue-based
[5] = tested on: B cell; assay: Downregulation of Ig-G secretion in human B cells cocultured with human PBMC at 0.37 to 10 uM preincubated for 1 hr followed by anti-IgM and TCR stimulation and measured after 84 hrs by ELISA; type: functional, cell-based; settings: dose microM 0.37-10, time 1.0 hrs
[6] = target: T3, Bromodomain-containing protein 2 (Homo sapiens, UniProt P25440); assay: Binding affinity to human partial length BRD2 bromodomain 2 isoform 1 (E348 to D455 residues) expressed in bacterial expression system by BROMOscan assay
T3 sequence (P25440 whole entry, the tested form may be a part, canonical isoform): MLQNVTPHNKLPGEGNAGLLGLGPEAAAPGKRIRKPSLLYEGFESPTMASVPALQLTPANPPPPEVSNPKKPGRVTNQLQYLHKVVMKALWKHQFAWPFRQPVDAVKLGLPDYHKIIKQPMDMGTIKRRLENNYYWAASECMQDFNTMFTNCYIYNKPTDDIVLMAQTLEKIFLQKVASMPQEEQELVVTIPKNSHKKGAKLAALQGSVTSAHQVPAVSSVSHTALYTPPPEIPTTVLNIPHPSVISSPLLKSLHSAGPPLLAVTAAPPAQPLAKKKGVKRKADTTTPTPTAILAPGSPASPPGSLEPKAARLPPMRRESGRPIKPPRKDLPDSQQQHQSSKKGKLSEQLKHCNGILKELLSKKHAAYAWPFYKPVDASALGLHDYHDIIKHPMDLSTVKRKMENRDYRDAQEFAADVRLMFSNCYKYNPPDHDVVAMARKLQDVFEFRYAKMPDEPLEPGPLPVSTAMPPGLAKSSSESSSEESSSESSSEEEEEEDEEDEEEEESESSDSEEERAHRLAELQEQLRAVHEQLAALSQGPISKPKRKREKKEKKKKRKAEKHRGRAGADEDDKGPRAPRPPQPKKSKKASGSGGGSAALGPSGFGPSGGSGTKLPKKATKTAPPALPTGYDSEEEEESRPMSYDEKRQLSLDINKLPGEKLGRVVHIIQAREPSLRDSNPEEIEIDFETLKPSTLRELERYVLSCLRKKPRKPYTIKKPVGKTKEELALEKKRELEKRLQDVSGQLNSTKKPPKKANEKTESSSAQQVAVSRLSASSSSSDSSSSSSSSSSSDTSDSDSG

[7] = target: Protein polybromo-1 (Homo sapiens, UniProt Q86U86); assay: Binding affinity to human partial length PBRM1 bromodomain 5 (S645 to D766 residues) expressed in bacterial expression system by BROMOscan assay
Chain of Protein polybromo-1 (Q86U86 whole entry, the tested form may be a part): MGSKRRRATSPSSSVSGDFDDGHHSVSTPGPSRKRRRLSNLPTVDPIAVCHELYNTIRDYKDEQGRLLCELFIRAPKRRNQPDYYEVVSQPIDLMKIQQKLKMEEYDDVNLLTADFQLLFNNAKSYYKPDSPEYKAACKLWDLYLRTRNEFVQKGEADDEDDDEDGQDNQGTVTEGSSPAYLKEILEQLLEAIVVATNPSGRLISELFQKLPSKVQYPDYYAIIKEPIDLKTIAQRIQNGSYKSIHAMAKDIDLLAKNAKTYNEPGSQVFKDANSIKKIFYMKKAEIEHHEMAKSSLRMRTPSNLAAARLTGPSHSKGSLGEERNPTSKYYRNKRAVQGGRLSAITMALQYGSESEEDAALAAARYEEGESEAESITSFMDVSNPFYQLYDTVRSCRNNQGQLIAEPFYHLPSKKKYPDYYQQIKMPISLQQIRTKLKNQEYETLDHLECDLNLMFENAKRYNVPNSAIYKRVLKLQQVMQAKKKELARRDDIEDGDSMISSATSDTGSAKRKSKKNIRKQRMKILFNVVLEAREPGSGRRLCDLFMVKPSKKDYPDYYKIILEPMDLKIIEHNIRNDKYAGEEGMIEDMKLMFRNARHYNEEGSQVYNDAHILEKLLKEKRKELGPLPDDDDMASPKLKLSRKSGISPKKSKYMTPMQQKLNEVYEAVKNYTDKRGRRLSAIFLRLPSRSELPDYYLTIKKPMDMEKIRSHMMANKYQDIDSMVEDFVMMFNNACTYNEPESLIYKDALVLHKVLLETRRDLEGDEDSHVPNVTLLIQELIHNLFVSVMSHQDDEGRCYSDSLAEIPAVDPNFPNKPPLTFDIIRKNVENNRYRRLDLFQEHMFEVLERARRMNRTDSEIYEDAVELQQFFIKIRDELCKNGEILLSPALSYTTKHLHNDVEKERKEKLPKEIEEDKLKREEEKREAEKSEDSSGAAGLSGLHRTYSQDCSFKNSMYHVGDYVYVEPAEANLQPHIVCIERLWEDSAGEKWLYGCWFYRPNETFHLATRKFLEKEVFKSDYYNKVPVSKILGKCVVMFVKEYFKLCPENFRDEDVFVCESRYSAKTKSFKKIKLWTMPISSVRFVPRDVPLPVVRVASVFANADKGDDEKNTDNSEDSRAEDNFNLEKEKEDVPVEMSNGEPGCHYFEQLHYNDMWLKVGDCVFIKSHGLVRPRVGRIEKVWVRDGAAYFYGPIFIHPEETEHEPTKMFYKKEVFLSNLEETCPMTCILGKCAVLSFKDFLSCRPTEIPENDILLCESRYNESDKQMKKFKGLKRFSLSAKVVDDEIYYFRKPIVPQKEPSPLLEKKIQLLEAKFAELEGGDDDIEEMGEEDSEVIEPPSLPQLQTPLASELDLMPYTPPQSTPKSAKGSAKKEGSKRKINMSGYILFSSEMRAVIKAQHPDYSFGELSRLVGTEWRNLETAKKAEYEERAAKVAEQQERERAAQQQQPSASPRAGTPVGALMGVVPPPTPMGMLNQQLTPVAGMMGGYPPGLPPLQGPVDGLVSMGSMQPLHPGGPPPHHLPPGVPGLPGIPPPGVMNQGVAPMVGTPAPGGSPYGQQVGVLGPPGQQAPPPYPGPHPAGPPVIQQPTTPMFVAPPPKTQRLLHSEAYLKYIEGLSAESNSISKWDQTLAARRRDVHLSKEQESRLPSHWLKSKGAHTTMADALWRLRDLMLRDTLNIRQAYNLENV

[8] = target: Transcription initiation factor TFIID subunit 1 (Homo sapiens, UniProt P21675); assay: Displacement of AlexaFluor 488-labelled BD-AF488 from TAF1 BD2 (unknown origin) incubated for 15 mins by TR-FRET assay
Chain of Transcription initiation factor TFIID subunit 1 (P21675 whole entry): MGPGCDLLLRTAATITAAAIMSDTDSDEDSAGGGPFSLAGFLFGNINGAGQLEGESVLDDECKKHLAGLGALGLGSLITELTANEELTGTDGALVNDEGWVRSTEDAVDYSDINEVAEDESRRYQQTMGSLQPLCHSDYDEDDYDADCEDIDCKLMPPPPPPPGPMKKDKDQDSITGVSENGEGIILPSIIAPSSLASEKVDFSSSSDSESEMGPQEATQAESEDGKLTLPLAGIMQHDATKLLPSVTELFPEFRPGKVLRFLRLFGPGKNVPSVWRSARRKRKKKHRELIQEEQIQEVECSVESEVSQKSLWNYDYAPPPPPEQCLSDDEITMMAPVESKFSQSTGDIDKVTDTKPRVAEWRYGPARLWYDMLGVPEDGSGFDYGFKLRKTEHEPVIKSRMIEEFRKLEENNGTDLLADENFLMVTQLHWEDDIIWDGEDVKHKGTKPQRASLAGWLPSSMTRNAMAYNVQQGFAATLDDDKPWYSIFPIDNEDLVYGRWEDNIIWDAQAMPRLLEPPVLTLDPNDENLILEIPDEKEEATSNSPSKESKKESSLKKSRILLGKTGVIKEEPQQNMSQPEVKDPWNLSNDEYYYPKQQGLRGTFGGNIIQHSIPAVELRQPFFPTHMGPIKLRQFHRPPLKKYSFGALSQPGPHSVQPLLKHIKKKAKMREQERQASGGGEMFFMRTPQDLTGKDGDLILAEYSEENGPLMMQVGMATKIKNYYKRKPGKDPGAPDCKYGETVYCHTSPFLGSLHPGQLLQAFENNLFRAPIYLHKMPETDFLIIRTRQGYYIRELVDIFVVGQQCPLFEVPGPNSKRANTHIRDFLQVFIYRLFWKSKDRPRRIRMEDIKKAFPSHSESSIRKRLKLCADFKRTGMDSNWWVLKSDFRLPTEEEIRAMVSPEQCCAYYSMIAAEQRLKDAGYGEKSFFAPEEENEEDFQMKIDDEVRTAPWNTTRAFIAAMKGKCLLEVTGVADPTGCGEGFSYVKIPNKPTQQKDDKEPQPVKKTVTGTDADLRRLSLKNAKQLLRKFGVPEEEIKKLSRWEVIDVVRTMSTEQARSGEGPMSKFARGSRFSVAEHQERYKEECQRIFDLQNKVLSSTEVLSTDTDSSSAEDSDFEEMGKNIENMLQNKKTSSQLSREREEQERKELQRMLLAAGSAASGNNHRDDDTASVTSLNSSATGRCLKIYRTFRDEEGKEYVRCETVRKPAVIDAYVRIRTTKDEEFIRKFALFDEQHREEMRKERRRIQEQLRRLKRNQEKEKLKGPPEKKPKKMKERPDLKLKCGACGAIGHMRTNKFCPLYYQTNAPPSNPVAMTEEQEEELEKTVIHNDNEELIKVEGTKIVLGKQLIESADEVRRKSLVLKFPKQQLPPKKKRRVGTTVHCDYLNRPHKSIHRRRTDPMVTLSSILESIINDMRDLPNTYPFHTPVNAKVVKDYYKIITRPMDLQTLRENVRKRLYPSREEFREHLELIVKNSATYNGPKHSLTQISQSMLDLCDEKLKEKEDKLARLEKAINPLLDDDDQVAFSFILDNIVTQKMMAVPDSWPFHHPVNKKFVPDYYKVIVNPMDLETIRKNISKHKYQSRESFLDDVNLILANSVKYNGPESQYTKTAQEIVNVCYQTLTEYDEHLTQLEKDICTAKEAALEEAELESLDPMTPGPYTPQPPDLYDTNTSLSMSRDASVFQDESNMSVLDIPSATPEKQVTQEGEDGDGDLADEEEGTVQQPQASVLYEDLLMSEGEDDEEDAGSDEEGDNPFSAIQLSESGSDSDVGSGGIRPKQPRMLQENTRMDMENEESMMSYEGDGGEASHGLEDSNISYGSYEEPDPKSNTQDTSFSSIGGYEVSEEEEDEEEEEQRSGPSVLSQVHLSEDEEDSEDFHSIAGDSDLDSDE

[9] = Lipophilicity, logD of the compound at pH 7.4 by chromatographic method; type: physicochemical; settings: buffer
[10] = target: T2, Bromodomain-containing protein 3; assay: Binding affinity to full length BRD3 BD1 in human HuT78 cell lysates incubated for 45 mins by liquid chromatography-mass spectrometry based chemoproteomic binding assay; type: subcellular
[11] = target: T3, Bromodomain-containing protein 2; assay: Binding affinity to full length BRD2 BD2 in human HuT78 cell lysates incubated for 45 mins by liquid chromatography-mass spectrometry based chemoproteomic binding assay; type: subcellular
[12] = target: Bromodomain testis-specific protein (Homo sapiens, UniProt Q58F21); assay: Binding affinity to human partial length BRDT bromodomain 1 (N21 to E137 residues) expressed in bacterial expression system by bromoscan assay

Cc1cc2c(-c3ccco3)cnc(N[C@@H]3CCN(C)C[C@H]3C(=O)NC3CCCCC3)c2[nH]c1=O [GSK789]
Kd [1]: 15.8 µM
Activity [2]: Active
Kd [3]: 6.31 µM
IC50 [4]: 3.55 µM
Activity [5]: Active
Kd [6]: 25.1 µM
Kd [7]: 10 µM
IC50 [8]: 10 µM
chromatographic logD [9]: 3.99
Kd [10]: 0.00398 µM
Kd [11]: > 25.1 µM
Kd [12]: 0.02 µM
